Patent US20250027045A1, “ESTABLISHMENT OF ERYTHROID PRECURSOR CELL LINE CAPABLE OF CONDITIONAL MATURATION USING GENE OVEREXPRESSION” (IUCF-HYU (INDUSTRY-UNIVERSITY COOPERATION FOUNDATION …, priority 2021, published 2025)
Where two headings read alike, the source gives them in different places.

Columns and labels:
[1] = test system: Cord blood-derived CD34+ cells; assay: Flow cytometry of CD71 marker: proportion of immature erythroblasts; type: cell-based, human; details: day 17, flow cytometry
Procedure: The following antibodies were used: glycophorin A (GPA; CD235a)-FITC (Life Technologies Inc., Gaithersburg, MD); and CD71-PE (BioLegend Inc., San Diego, CA). The cells were washed with 0.1% BSA, then antibodies were added and stained for 15 minutes at 4° C., while blocking light. In addition, a fluorescence microscope (Nikon Eclipse Ti; Nikon Corporation) was used to confirm the GFP fluorescence expressed in the cells cultured in the plate.
There is an TGF-β inhibitor (LY2157299) which is known to be effective in the maintenance and proliferation of immature erythroblasts, and a PPAR-α agonist (GW7647) that may have a synergistic effect on the proliferation of immature erythroblasts with glucocorticoid was explored, and an experiment was performed on the effects of the two substances. First, the two substances were added to a typical CD34+ cell culture under different conditions and cultured. In terms of cell proliferation, the cells proliferated the most by 1,500-fold by day 15 of culture when the culture was performed by adding the two substances together, and the cells proliferated by 1,000-fold by day 13 of culture in the experimental group where only the TGF-β inhibitor was added. […]

[2] = test system: Cord blood-derived CD34+ cells; assay: Proliferation of typical CD34+ cell culture with or without TGF-β inhibitor and PPAR-α agonist (cumulative cell number); type: cell-based, human
Procedure: HSCs were cultured for one to three days in a medium containing StemSpan SFEM (Stemcell Technologies) with 6 IU/ml EPO (Calbiochem, San Diego, CA), 100 ng/ml SCF (R&D Systems, Minneapolis, MN), and 10 ng/ml IL-3 (R&D Systems). Then, 5×10^4 cells were transduced with the virus concentrated in the above culture medium and polybrenc (8 μg/ml, Sigma). The multiplicity of infection (MOI) of the virus during transduction was calculated to be 15 to 30. 24 hours after the transduction, the medium was replaced with a fresh virus-free medium, and from day 5 of culture, the StemSpan SFEM medium was supplemented with 3 IU/ml EPO, 50 ng/ml SCF, 10^−6 M dexamethasone, and 250 nM TGF-β inhibitor (LY2157299, PeproTech, Rocky Hill, NJ), 10 μM PPAR-α agonist (GW7647, Sigma), and 1 μg/ml doxycycline (Takara Bio Inc.) to induce selective expression of HPV16 E6/E7 in the transduced cells. The efficiency of transduction was confirmed on day 7 of culture through GFP fluorescence expression of GFP-transduced cells, and the cells were maintained at a concentration of 2 to 3×10^5 cells/ml while replacing the medium with a fresh medium every two to three days. In addition, to obtain the cell proliferation and survival rate, the cells were stained with trypan blue (Gibco) and counted. […]

[3] = test system: E6/E7-transduced cells
Source text: Some of the cells in culture were spread on a slide using a cell centrifuge (Cellspin; Hanil Science Industrial Co. Ltd., Incheon, Korea) and stained with a Wright-Giemsa stain (Sigma), and the state, shape, and maturity of the cells were confirmed in a blind manner. Cell photos were taken using an optical microscope (Nikon Eclipse TE2000-U; Nikon Corporation).
In addition, the immature erythroblast marker CD71 was attached to the proliferating cells, and the proportion of immature erythroblasts was confirmed through flow cytometry.

Compound | proportion of immature erythroblasts (CD71) [1] [%] | proliferation rate ([2]; day not given) [fold] | immature erythroblasts, % of all cells ([3]; day 28 of culture) [%] | immature erythroblasts, % of all cells ([3]; day 33 of culture) [%] | cell proliferation ([2]; by day 13 of culture)
CC(C)(Sc1ccc(CCN(CCCCC2CCCCC2)C(=O)NC2CCCCC2)cc1)C(=O)O [PPAR-α agonist, GW7647] | 53 | 500 |  |  | 
Cc1cccc(-c2nn3c(c2-c2ccnc4ccc(C(N)=O)cc24)CCC3)n1 [TGF-β inhibitor, LY2157299] |  |  | 26.7 | 15.2 | 1,000 fold
